Reference: patent publication US11002728B2, “Method for evaluating activity of G protein-coupled receptor (GPCR)” (RIKEN, priority 2017, dated 2021)
One block for each compound: values may come before it.

Tests used:
[1] = target: HRH1 (Homo sapiens, UniProt P35367); conditions: HRH1 in HEK293 cells, 1 μM ligand, mean ± standard error, n=20 cells; vehicle 0.064
[2] = target: T1, CXCR4 (Homo sapiens, UniProt P61073); test: Single-molecule imaging of GPCR diffusive dynamics (DAv) in HEK293 cells; assay type: cell-based; conditions: 20 nM ligand, mean ± standard error, n=20 cells, vehicle 0.087
T1 construct: host or cells: HEK293
Description: (§1) HEK293 cells were cultured in a DMEM/F12 (Gibco) medium added with 15 mM HEPES (pH 7.3), 29 mM NaHCO3, and 10% FBS at 37° C. in an environment containing 5% CO2. On the day before the observation, the HEK293 cells on a 60-mm dish (IWAKI) with a cover glass (Matsunami Glass Ind., Ltd.) were transfected with a plasmid DNA (pDNA) of HaloTag-fused mGluR3 using Lipofectamine 3000 (Invitrogen). A transfection reagent and pDNA (pDNA (0.1 μg), P3000 reagent (0.2 μL), Lipofectamine 3000 reagent (2.5 μL), Opti-MEM (120 μL, Gibco)) were mixed, and the mixture was then left to stand at room temperature for 15 minutes and was added to HEK293 cells on the 60-mm dish containing DMEM/F12 (3 mL). […] After culturing at 37° C. in an environment containing 5% CO2 for 3 hours, the medium was replaced with DMEM (3 mL, Sigma) not containing phenol red and containing 10% FBS. […] TMR-labeled mGluR3 on the cell membranes of the HEK293 cells were excited with total internal reflection illumination on an inverted fluorescence microscope (TE2000, Nikon Corporation), and single-molecule imaging was performed. […]

[3] = target: T2, mGluR3 (Mus musculus, UniProt Q9QYS2); test: Single-molecule imaging of mGluR3 diffusive dynamics (MSD, DAv, VB-HMM diffusion states) in HEK293 cells; conditions: for change of MSD of mGluR3: MSD-Δt plots, FIG. 1(c to e); for IC50: IC50 of the LY379268 dependent change of DAv
Description: A DNA sequence encoding HaloTag7 (Promega Corporation) was amplified by PCR and was fused to the C-terminal sequence of mouse mGluR3 using In-Fusion HD Cloning Kit (Clontech Laboratories, Inc.). In order to quantify the expression level of HaloTag-fused mGluR3 by Western blotting, the epitope sequence of a monoclonal antibody Rho 1D4 recognizing the C-terminus of bovine rhodopsin was added immediately after the HaloTag sequence. Complementary DNAs of mGluR3 were inserted into a pCAG-GS vector^21.
HEK293 cells were cultured in a DMEM/F12 (Gibco) medium added with 15 mM HEPES (pH 7.3), 29 mM NaHCO3, and 10% FBS at 37° C. in an environment containing 5% CO2. On the day before the observation, the HEK293 cells on a 60-mm dish (IWAKI) with a cover glass (Matsunami Glass Ind., Ltd.) were transfected with a plasmid DNA (pDNA) of HaloTag-fused mGluR3 using Lipofectamine 3000 (Invitrogen). A transfection reagent and pDNA (pDNA (0.1 μg), P3000 reagent (0.2 μL), Lipofectamine 3000 reagent (2.5 μL), Opti-MEM (120 μL, Gibco)) were mixed, and the mixture was then left to stand at room temperature for 15 minutes and was added to HEK293 cells on the 60-mm dish containing DMEM/F12 (3 mL). In two-color single-molecule measurement, pDNA (0.02 μg) of GFP-fused CLC was transfected together with HaloTag-fused mGluR3. After culturing at 37° C. in an environment containing 5% CO2 for 3 hours, the medium was replaced with DMEM (3 mL, Sigma) not containing phenol red and containing 10% FBS. After culturing overnight, the medium was replaced with 3 mL of DMEM containing 300 nM HaloTag TMR ligand (Promega Corporation) and not containing phenol red and FBS, followed by being left to stand at 37° C. in an environment containing 5% CO2 for 30 minutes to specifically stain the HaloTag-fused mGluR3 of the HEK293 cells. […] In single-molecule imaging, the cover glass was placed in a metal chamber (Invitrogen) and was washed with 400 μL of Hanks' balanced salt solution (HBSS (Sigma); containing 15 mM HPEPS (pH 7.1) and not containing NaHCO3) five times, followed by observation at room temperature (25° C.). TMR-labeled mGluR3 on the cell membranes of the HEK293 cells were excited with total internal reflection illumination on an inverted fluorescence microscope (TE2000, Nikon Corporation), and single-molecule imaging was performed. […] The fluorescences of TMR and GFP were wavelength dependently separated with dichroic mirror 59004b (Chroma) in a two-optical path branching system (M202J, Nikon Corporation), were allowed to pass through a band pass filter (GFP: ET525/50m, TMR: ET605/70m, Chroma), and were then photographed simultaneously by two EM-CCD cameras (ImagEM, Hamamatsu Photonics K.K.).

[4] = target: T2, mGluR3; test: [3H]-LY341495 binding experiment, HEK293 membrane fraction expressing mGluR3
Description: HEK293 cells cultured to about 40% confluence in a 100-mm dish were transfected with mGluR3 pDNA and an empty pCAG vector as a mock each at 10 μg/dish by a calcium phosphate method. After the transfection, the cells were cultured in DMEM/F12 medium containing 10% FBS for 48 hours and were then collected, followed by centrifugation. The precipitation was washed with 1 mL of PBS (pH 7.4). Centrifugation was further performed. The precipitation was placed in a 1.5-mL tube and was homogenized with a pellet mixer in buffer A (50 mM HEPES (pH 6.5), 140 mM NaCl) in which 50% sucrose was dissolved, followed by centrifugation to separate supernatant and precipitate. […]
A cell membrane fraction containing mGluR3 was resuspended in HBSS (containing 15 mM HEPES (pH 7.1) and not containing NaHCO3, Sigma) having the same composition as that used in the single-molecule measurement, and the binding of [^3H]-LY341495 to the membrane was measured at room temperature. […] Each dot was excised from the nitrocellulose membrane and was placed in a cocktail for a liquid scintillation counter (Ultima Gold, PerkinElmer Life Sciences, Inc.), and the binding amount of [^3H]-LY341495 was quantified with LS6500 (Beckman Coulter). […] Kd was calculated from fitting result by an expression obtained by replacing the EC50 in Expression 3 mentioned above with kd. […] The IC50 was calculated based on Expression 4.

[5] = target: T2, mGluR3; test: [35S]-GTPγS binding experiment (G protein activation ability of mGluR3, purified Go protein); assay type: biochemical; set-up: expressed in transfected cells; host or cells: HEK293 (pCAG-GS vector)
Description: Each mixture was left to stand at 20° C. for 30 minutes. [^35S]-GTPγS was added to the mixture to start GDP/GTPγS exchange reaction. The composition except the ligand of the final mixture solution (20 μL) was 50 mM HEPES (pH 6.5), 140 mM NaCl, 5 mM MgCl2, 0.01% DM, 0.03% sodium cholate, 5 nM [^35S]-GTPγS, 500 nM GTPγS (cold), and 500 nM GDP. A reaction stop solution (200 μL, 20 mM Tris/Cl (pH 7.4), 100 mM NaCl, 25 mM MgCl2, 500 nM GTPγS (cold), and 500 nM GDP) was added to the mixture solution at 30 seconds after the addition of [^35S]-GTPγS to stop the incorporation of [^35S]-GTPγS into G protein, and immediately all the reaction solution was passed through a nitrocellulose membrane with the dot-blot apparatus to separate [^35S]-GTPγS bound to G protein. Subsequently, the nitrocellulose membrane was washed with buffer C (200 μL, 20 mM Tris/Cl (pH 7.4), 100 mM NaCl, and 25 mM MgCl2) three times and was dried for 1 hour. Each dot was excised from the nitrocellulose membrane and was placed in a cocktail for a liquid scintillation counter (Ultima Gold, PerkinElmer Life Sciences, Inc.), and the binding amount of [^35S]-GTPγS was quantified with LS6500 (Beckman Coulter).

[6] = target: T3, FFAR4 (Homo sapiens, UniProt Q5NUL3); test: Single-molecule imaging of GPCR diffusive dynamics (DAv) in HEK293 cells; assay type: cell-based; conditions: 100 nM ligand, mean ± standard error, n=20 cells, vehicle 0.083
T3 construct: host or cells: HEK293
T3 sequence (Q5NUL3 1-361): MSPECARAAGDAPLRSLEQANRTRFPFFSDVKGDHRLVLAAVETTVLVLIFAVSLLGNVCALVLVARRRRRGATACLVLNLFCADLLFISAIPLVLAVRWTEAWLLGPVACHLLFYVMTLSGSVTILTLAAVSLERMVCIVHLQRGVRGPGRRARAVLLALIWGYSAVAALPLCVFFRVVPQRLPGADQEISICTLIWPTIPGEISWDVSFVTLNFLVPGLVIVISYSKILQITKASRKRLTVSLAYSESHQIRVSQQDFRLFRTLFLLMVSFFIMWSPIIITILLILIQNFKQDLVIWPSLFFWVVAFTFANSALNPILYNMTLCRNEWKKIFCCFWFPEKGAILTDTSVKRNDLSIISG
Description: as §1

[7] = target: F2R (Homo sapiens, UniProt P25116); conditions: F2R in HEK293 cells, 10 μM ligand, mean ± standard error, n=20 cells; vehicle 0.084
[8] = target: T2, mGluR3; test: Two-color single-molecule imaging, colocalization of TMR-labeled mGluR3 and GFP-labeled CLC; assay type: cell-based; set-up: expressed in transfected cells; host or cells: HEK293 (pCAG-GS vector); conditions: active (100 μM LY379268) versus inactive state (100 nM LY341495)
Description: Colocalization of TMR-labeled mGluR3 and GFP-labeled CLC was defined as a track in which each bright spot was within 100 nm in the same frame. The positional accuracy of the bright spot tracking of TMR-labeled mGluR3 and GFP-labeled CLC was estimated to be 28 nm and 31 nm, respectively, from measurement of fixed samples. These values correspond to 1 SD of the displacement when fixed molecules were tracked. After image processing, the error between the positions of the same gold particle in two channels was estimated to be 18 nm. Accordingly, 100 nm corresponds to about 2 SD of the positional accuracy considering the total error. The time constant of colocalization was calculated by fitting the cumulative frequency distribution (FIG. 9(f)) by Expression 8.
The proportion of each component was calculated from the proportions of A1 and A2.

[9] = target: HTR2A (Homo sapiens, UniProt P28223); test: Single-molecule imaging of GPCR diffusive dynamics (DAv) in HEK293 cells; assay type: cell-based; conditions: 10 μM ligand, mean ± standard error, n=20 cells, vehicle 0.079
Chain of HTR2A (P28223 whole entry): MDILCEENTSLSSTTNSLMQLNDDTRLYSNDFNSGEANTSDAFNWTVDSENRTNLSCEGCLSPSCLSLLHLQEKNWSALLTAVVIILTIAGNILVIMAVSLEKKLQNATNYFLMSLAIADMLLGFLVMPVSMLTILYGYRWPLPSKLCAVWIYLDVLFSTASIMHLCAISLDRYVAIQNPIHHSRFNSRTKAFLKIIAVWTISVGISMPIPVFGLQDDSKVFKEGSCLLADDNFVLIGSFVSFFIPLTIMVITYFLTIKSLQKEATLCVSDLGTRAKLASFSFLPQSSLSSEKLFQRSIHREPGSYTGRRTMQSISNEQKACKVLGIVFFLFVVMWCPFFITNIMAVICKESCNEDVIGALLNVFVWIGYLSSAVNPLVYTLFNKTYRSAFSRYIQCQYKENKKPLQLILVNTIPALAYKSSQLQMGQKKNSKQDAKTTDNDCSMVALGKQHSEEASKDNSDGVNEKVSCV

T2 sequence (Q9QYS2 23-879): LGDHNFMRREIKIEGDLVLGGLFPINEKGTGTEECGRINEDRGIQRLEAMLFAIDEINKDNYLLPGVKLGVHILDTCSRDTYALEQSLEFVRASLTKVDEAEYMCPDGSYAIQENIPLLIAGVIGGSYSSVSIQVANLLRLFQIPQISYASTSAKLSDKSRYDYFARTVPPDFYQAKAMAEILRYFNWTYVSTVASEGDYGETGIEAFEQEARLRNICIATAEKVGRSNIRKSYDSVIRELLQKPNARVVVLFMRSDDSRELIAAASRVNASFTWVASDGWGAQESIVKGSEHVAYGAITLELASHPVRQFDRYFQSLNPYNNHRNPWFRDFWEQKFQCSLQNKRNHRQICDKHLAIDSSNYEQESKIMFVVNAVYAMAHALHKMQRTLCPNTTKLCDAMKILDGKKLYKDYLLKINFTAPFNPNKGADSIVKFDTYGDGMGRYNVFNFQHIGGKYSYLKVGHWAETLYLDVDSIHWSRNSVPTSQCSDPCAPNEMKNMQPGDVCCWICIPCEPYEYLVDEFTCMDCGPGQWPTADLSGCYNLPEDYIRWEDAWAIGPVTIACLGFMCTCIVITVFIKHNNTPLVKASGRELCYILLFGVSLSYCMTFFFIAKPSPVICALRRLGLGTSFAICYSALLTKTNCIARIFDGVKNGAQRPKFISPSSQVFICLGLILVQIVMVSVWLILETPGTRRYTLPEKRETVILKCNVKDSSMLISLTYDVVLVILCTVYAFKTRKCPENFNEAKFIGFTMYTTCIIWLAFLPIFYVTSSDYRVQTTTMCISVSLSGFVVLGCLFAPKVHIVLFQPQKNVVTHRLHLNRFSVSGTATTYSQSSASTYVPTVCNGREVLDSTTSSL
Chain of F2R (P25116 22-425): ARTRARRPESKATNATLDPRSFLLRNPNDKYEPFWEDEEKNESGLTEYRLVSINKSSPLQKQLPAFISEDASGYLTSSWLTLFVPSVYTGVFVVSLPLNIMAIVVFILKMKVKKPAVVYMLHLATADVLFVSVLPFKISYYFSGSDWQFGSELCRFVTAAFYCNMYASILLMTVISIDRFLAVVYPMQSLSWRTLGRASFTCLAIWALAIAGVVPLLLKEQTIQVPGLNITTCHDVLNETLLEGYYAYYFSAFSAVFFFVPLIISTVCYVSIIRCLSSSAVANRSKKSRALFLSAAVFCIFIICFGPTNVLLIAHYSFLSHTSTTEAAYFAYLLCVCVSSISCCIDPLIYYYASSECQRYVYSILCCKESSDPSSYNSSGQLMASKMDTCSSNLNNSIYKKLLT
T1 sequence (P61073 whole entry): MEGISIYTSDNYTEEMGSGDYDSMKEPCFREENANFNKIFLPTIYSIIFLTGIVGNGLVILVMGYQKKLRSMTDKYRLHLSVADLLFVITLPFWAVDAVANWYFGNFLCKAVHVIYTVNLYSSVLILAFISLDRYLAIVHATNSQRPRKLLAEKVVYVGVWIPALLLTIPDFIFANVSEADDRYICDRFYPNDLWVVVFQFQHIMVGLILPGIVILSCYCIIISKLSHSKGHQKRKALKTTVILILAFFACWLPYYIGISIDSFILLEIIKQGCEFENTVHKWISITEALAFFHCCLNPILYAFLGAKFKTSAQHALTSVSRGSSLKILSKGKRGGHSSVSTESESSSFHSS
Chain of HRH1 (P35367 whole entry): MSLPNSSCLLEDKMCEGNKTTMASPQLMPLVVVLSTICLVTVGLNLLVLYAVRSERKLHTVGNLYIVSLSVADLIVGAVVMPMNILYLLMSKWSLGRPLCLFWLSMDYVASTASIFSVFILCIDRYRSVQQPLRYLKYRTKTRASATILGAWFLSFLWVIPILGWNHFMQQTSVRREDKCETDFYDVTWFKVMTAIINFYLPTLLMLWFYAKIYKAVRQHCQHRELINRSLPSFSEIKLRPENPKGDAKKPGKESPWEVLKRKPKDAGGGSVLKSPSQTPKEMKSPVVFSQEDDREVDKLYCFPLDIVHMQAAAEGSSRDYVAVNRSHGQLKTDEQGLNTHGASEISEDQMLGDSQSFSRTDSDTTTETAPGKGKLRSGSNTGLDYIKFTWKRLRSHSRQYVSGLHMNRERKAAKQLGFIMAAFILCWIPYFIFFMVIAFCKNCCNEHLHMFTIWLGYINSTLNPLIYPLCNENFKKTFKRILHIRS

Compound: CXCL12: chemokine, agonist used on CXCR4
- DAv, Ligand [2]: 0.068 ± 0.0017 μm^2/s

Compound: MNI137
- effect on LY379268 concentration-dependent change of DAv ([3]; 1 μM, presence of 100 nM LY341495, FIG. 4(b)): the LY379268 concentration-dependent decrease of DAv was suppressed
- change of MSD of mGluR3 ([3]; n=20 cells): the LY379268-dependent decrease of the MSD was suppressed
- influence on the binding affinity of LY379268 ([4]; 1 μM MNI137, competition with 100 nM [3H]-LY341495, FIG. 4(d)): did not influence the binding affinity of LY379268
- effect on LY379268-dependent G protein activation ability ([5]; 1 μM MNI137, 100 nM LY341495 present, FIG. 4(f)): suppresses the LY379268-dependent increase of G protein activation ability

Compound: TRAP-6
- DAv, Ligand [7]: 0.060 ± 0.0017 μm^2/s

Now from value to compound, other results behind:

- DAv, Ligand [1]: 0.045 ± 0.0025 μm^2/s
Compound: NCCc1c[nH]cn1 [histamine]

- DAv, Ligand [6]: 0.048 ± 0.0073 μm^2/s
Compound: CC/C=C\C/C=C\C/C=C\C/C=C\C/C=C\C/C=C\CCC(=O)O [DHA]

- IC50 ([3]; FIG. 4(a), absence of other ligands, n=20 cells): 1190 ± 20 nM
- IC50 ([3]; FIG. 4(b), presence of 100 nM LY341495, n=20 cells): 1030 ± 80 nM
- change of MSD of mGluR3 ([3]; n=20 cells): decreased depending on the concentration
- DAv, Ligand ([3]; mGluR3 in HEK293 cells, 100 μM ligand, mean ± standard error, n=20 cells, vehicle 0.047): 0.039 ± 0.0018 μm^2/s
- increase in the colocalization probability of mGluR3 and CLC ([8]; FIG. 10(e)): about 1.6 fold
- increase of the Long-time constant of colocalization of mGluR3 and CLC ([8]; FIG. 10(g)): about two-fold
- IC50 [4]: 550 ± 80 nM
- EC50 ([5]; absence of other ligands, FIG. 4(e), n=3, read-out: EC50 of the LY379268-dependent increase of the G protein activation ability of mGluR3): 25 ± 2.9 nM
Compound: N[C@@]1(C(=O)O)CO[C@H]2[C@H](C(=O)O)[C@H]21 [LY379268]
- ligand-dependent change of the proportions of the diffusion states (VB-HMM) ([3]; concentration dependent, FIG. 5(c, d)): increases in the immobile and slow states and a decrease in the fast state

- DAv, Ligand [9]: 0.065 ± 0.0034 μm^2/s
Compound: NCCc1c[nH]c2ccc(O)cc12 [serotonine]
